In brackets after ≈: the same amount, converted by molar mass.
Assays:
E. coli NIHJ JC-2 = assay: MIC against standard strains (Test Example 3); format: cell-based; settings: Escherichia coli, NIHJJC2; E. coli NIHJ JC-2 (Test Example 3); read-out: MIC
Experimental: (§1) By using each test strain cultured overnight at 37°C in a Muller-Hinton broth, there was prepared a bacterial solution with a bacterial cell population of 1 x 10^6 CFU/mi of the same bouillon. The bacterial solution was inoculated into the Muller-Hinton agar media each containing respectively one test agent and, after overnight incubation at 37°C, the minimum concentration that inhibited growth of the bacteria was determined and shown as MIC also in Table 1.
(§2) The minimum growth inhibitory concentration was determined for each of the 21 standard strains shown in Table 3, according to the same method as used in Test Example 1.
(§3) In the test, FMOX (flomoxef), CTM (cefotiam) and CEZ (cefazolin) were used as control agents.

A. calcoaceticos T59 = assay: MIC against standard strains (Test Example 3); format: cell-based; settings: A. calcoaceticos T59 (Test Example 3); read-out: MIC
Experimental: as §1, §2, §3

K. pneumoniae No. 42 = assay: MIC against standard strains (Test Example 3); format: cell-based; settings: Klebsiella pneumoniae; K. pneumoniae No. 42 (Test Example 3); read-out: MIC
Experimental: as §1, §2, §3

P. mirabilis IFO3849 = assay: MIC against standard strains (Test Example 3); format: cell-based; settings: Proteus mirabilis; P. mirabilis IFO3849 (Test Example 3); read-out: MIC
Experimental: as §1, §2, §3

P. aeruginosa NCTC10490 = assay: MIC against standard strains (Test Example 3); format: cell-based; settings: Pseudomonas aeruginosa; P. aeruginosa NCTC10490 (Test Example 3); read-out: MIC
Experimental: as §1, §2, §3

S. aureus Smith = assay: MIC against standard strains (Test Example 3); format: cell-based; settings: Staphylococcus aureus; S. aureus Smith (Test Example 3); read-out: MIC
Experimental: as §1, §2, §3

S. aureus 209p JC-1 = assay: MIC against standard strains (Test Example 3); format: cell-based; settings: Staphylococcus aureus; S. aureus 209p JC-1 (Test Example 3); read-out: MIC
Experimental: as §1, §2, §3

S. marcescens IAM1184 = assay: MIC against standard strains (Test Example 3); format: cell-based; settings: Serratia marcescens; S. marcescens IAM1184 (Test Example 3); read-out: MIC
Experimental: as §1, §2, §3

S. epidemidis IAM1296 = assay: MIC against standard strains (Test Example 3); format: cell-based; settings: S. epidemidis IAM1296 (Test Example 3); read-out: MIC
Experimental: as §1, §2, §3

A. faecalis ATCC3750 = assay: MIC against standard strains (Test Example 3); format: cell-based; settings: Alcaligenes faecalis; A. faecalis ATCC3750 (Test Example 3); read-out: MIC
Experimental: as §1, §2, §3

P. vulugaris OX-19 = assay: MIC against standard strains (Test Example 3); format: cell-based; settings: P. vulugaris OX-19 (Test Example 3); read-out: MIC
Experimental: as §1, §2, §3

C. freundii ATCC8090 = assay: MIC against standard strains (Test Example 3); format: cell-based; settings: Citrobacter freundii; C. freundii ATCC8090 (Test Example 3); read-out: MIC
Experimental: as §1, §2, §3

S. aureus 195 = assay: MIC against standard strains (Test Example 3); format: cell-based; settings: Staphylococcus aureus; S. aureus 195 (MRSA) (Test Example 3); read-out: MIC
Experimental: as §1, §2, §3

S. aureus 167 = assay: MIC against standard strains (Test Example 3); format: cell-based; settings: Staphylococcus aureus; S. aureus 167 (MRSA) (Test Example 3); read-out: MIC
Experimental: as §1, §2, §3

E. coli CSH2 (RE45) = assay: MIC against standard strains (Test Example 3); format: cell-based; settings: Escherichia coli
Experimental: as §1, §2, §3

E. coli CSH2 (RK1) = assay: MIC against standard strains (Test Example 3); format: cell-based; settings: Escherichia coli
Experimental: as §1, §2, §3

K. pneumoniae IFO3317 = assay: MIC against standard strains (Test Example 3); format: cell-based; settings: Klebsiella pneumoniae; K. pneumoniae IFO3317 (Test Example 3); read-out: MIC
Experimental: as §1, §2, §3

B. subtilis ATCC6633 = assay: MIC against standard strains (Test Example 3); format: cell-based; settings: Bacillus subtilis; B. subtilis ATCC6633 (Test Example 3); read-out: MIC
Experimental: as §1, §2, §3

E. cloacae ATCC13407 = assay: MIC against standard strains (Test Example 3); format: cell-based; settings: Enterobacter cloacae; E. cloacae ATCC13407 (Test Example 3); read-out: MIC
Experimental: as §1, §2, §3

M. Morganii IFO3848 = assay: MIC against standard strains (Test Example 3); format: cell-based; settings: Morganella morganii; M. Morganii IFO3848 (Test Example 3); read-out: MIC
Experimental: as §1, §2, §3

M. luteus ATCC 9341 = assay: MIC against standard strains (Test Example 3); format: cell-based; settings: Micrococcus luteus, ATCC9341; M. luteus ATCC 9341 (Test Example 3); read-out: MIC
Experimental: as §1, §2, §3

clinically isolated MRSA [1] = assay: Antibacterial potency against clinically isolated MRSA (Test Example 4); format: cell-based, methicillin-resistant Staphylococcus aureus; settings: Staphylococcus aureus, 52 strains of clinically isolated MRSA; for MIC50: concentration inhibiting growth of 50% of the strains (Test Example 4), read-out: MIC50; for MIC90: concentration inhibiting growth of 90% of the strains (Test Example 4), read-out: MIC90
Experimental: (§4) 52 strains of clinically isolated MRSA were used, and MIC was determined for each of the strains according to the standard method of the Japan Chemotherapical Society as in Test Example 1. The minimum growth inhibitory concentration which inhibited growth of 50% of the strains tested was expressed as MIC50 (µg/ml), and the minimum growth inhibitory concentration which inhibited growth of 90% of the strains was expressed as MIC90 (µg/ml).
MIC 50 and MIC 90 were determined for each of the 52 strains of clinically isolated MRSA according to the same method as used in Test Example 2.
VCM (vancomycin) was used as control agent.

clinically isolated MRSA [2] = assay: Antibacterial potency against clinically isolated MRSA (Test Example 2); format: cell-based, methicillin-resistant Staphylococcus aureus; settings: Staphylococcus aureus, 52 strains of clinically isolated MRSA; for MIC50: concentration inhibiting growth of 50% of the strains (Test Example 2); for MIC90: concentration inhibiting growth of 90% of the strains (Test Example 2)
Experimental: A test on the antibacterial potency against clinically isolated MRSA was conducted in the following way.
as §4
In this test, FMOX (flomoxef), IPM/CS (imipenem/cilastatin), CMZ (cefmetazole), MINO (minocycline) and DMPPC (methicillin) were used as control agents.

Compound	MIC (E. coli NIHJ JC-2)	MIC (A. calcoaceticos T59)	MIC (K. pneumoniae No. 42)	MIC (P. mirabilis IFO3849)	MIC (P. aeruginosa NCTC10490)	MIC (S. aureus Smith)	MIC (S. aureus 209p JC-1)	MIC (S. marcescens IAM1184)	MIC (S. epidemidis IAM1296)	MIC (A. faecalis ATCC3750)	MIC (P. vulugaris OX-19)	MIC (C. freundii ATCC8090)	MIC (S. aureus 195)	MIC (S. aureus 167)	MIC (E. coli CSH2 (RE45))	MIC (E. coli CSH2 (RK1))	MIC (K. pneumoniae IFO3317)	MIC (B. subtilis ATCC6633)	MIC (E. cloacae ATCC13407)	MIC (M. Morganii IFO3848)	also measured
Nc1nc(/C(=N/O)C(=O)N[C@@H]2C(=O)N3C(C(=O)[O-])=C(C[n+]4cccc(-c5csc(N)n5)c4)CS[C@H]23)cs1 [Compound (9), 7β-[2-(2-aminothiazol-4-yl)-2-syn-hydroxyiminoacetamido]-3-[[3-(2-aminothiazol-4-yl)-1-pyridinio]methyl]-3-cephem-4-carboxylic acid chloride]	0.2 µg/mL	12.5 µg/mL	0.78 µg/mL	0.39 µg/mL	3.13 µg/mL	0.2 µg/mL	0.2 µg/mL	0.39 µg/mL	0.05 µg/mL	1.56 µg/mL	0.2 µg/mL	0.2 µg/mL	1.56 µg/mL	3.13 µg/mL	0.39 µg/mL	0.39 µg/mL	0.2 µg/mL	0.2 µg/mL	0.78 µg/mL	0.1 µg/mL	MIC (M. luteus ATCC 9341): 0.05 µg/mL; MIC50 (clinically isolated MRSA [1]): 1.48 µg/mL; MIC90 (clinically isolated MRSA [1]): 2.92 µg/mL
CN(C)c1ccc(O)c2c1C[C@H]1C[C@H]3[C@H](N(C)C)C(O)=C(C(N)=O)C(=O)[C@@]3(O)C(O)=C1C2=O [MINO, minocycline, reference compound]																					MIC50 (clinically isolated MRSA [2]): 0.2 µg/mL (≈ 0.437 µM); MIC90 (clinically isolated MRSA [2]): 1.5 µg/mL (≈ 3.28 µM)
CO[C@@]1(NC(=O)CSCC#N)C(=O)N2C(C(=O)O)=C(CSc3nnnn3C)CS[C@@H]21 [CMZ, cefmetazole, reference compound]																					MIC50 (clinically isolated MRSA [2]): 16.8 µg/mL (≈ 35.6 µM); MIC90 (clinically isolated MRSA [2]): 49.8 µg/mL (≈ 106 µM)
Cc1nc(-c2cc[n+](CC3=C(C(=O)[O-])N4C(=O)[C@@H](NC(=O)/C(=N\O)c5csc(N)n5)[C@H]4SC3)cc2)cs1 [Compound (13), 7β-[2-(2-aminothiazol-4-yl)-2-syn-hydroxyiminoacetamido]-3-[[4-(2-methylthiazol-4-yl)-1-pyridinio]methyl]-3-cephem-4-carboxylic acid chloride]	0.2 µg/mL	50 µg/mL	0.78 µg/mL	0.39 µg/mL	12.5 µg/mL	0.39 µg/mL	0.2 µg/mL	0.39 µg/mL	0.2 µg/mL	1.56 µg/mL	0.2 µg/mL	0.2 µg/mL	3.13 µg/mL	6.25 µg/mL	0.2 µg/mL	0.2 µg/mL	0.1 µg/mL	0.2 µg/mL	0.78 µg/mL	0.05 µg/mL	MIC (M. luteus ATCC 9341): 0.05 µg/mL; MIC50 (clinically isolated MRSA [1]): 2.21 µg/mL; MIC90 (clinically isolated MRSA [1]): 5.51 µg/mL

Reference: EP0554004A2, “Cephem compounds and antibacterial agents” (KATAYAMA SEIYAKUSYO CO. Ltd., priority 1992, dated 1993)
